As usually defined, the IC50 is the concentration that inhibits the measured activity by half.

These results are taken from patent US20040053950A1, “Antimalarial activities and therapeutic properties of febrifugine analogues” (priority 2002, published 2004).

Series [1] deals with P. falciparum chloroquine-resistant W2-strain. Kind of series: In vitro drug susceptibility assay ([3H]-hypoxanthine incorporation), W2 strain. It is filed as cell-based. Particulars: Plasmodium falciparum. The protocol: (§1) Potential resistance to halofuginone derivatives of P. falciparum isolates were tested. Isolates of P. falciparum stored in liquid nitrogen are thawed and cultivated in RPMI 1640 media with 6% human erythrocytes supplemented with 10% of human serum. The parasite cultures are maintained in an atmosphere of 5% CO2, 5% O2 and 90% N2 at 37° C. for the assay. The semi-automated micro-dilution technique of Desjardins is used to assess the sensitivity of the parasites to febrifugine and halofuginone derivatives. The incorporation of [3H]-hypoxanthine into the parasites is measured as a function of compound concentration to determine EC50 values.

The subject of series [2] is P. falciparum chloroquine-sensitive D6-strain. Kind of series: In vitro drug susceptibility assay ([3H]-hypoxanthine incorporation), D6 strain. The series is classed as cell-based. Particulars: Plasmodium falciparum. The protocol:
as §1

The next series concerns Macrophage cells (J774). Kind of series: In vitro drug toxicity assay, macrophage cells. The series is classed as cell-based. Particulars: Mus musculus.
A further series deals with Neuronal cells (NG108). Kind of series: In vitro drug toxicity assay, neuronal cells. Particulars: NG-108. It is filed as cell-based.
In a further series the test system is malarial parasites. Kind of series: In vitro antimalarial activity, parasites in culture (strain not stated). It is filed as cell-based. As for the experimental part:
as §1

Another series deals with Plasmodium lophurae. Particulars: duck models, purified febrifugine; cited from earlier work.
The next series has as its system Plasmodium berghei. Kind of series: Modified Thompson test in P. berghei-infected mice. It is filed as in vivo. The protocol: An active animal use protocol mouse models are used to test the above compounds to determine antimalarial activity by using modified Thompson Test. In this test, IRC mice are inoculated intraperitoneally with P. berghei-infected erythrocytes from donor mice that are anesthetized and exsanguinated via cardiac puncture to collect infected blood. The pooled blood is then diluted with normal mouse serum to a concentration of 1×10^6 P. berghei erythrocytes per inoculum (0.1 ml). The groups of testing and control mice are inoculated with the infected blood on day 0 and then treated with various dosages of halofuginone or the derivatives in aqueous-based vehicles on day 3 through the day required. The drug is administered orally (PO), subcutaneously (SC), intramuscularly (IM), and/or intraperitoneally (IP) up to three times a day, based on the requirements. Blood films and body weights are taken on the third and sixth days post-infection, then at weekly intervals through day 60. Films are Giemsa-stained, examined using light microscopy for the determination of parasitemia. All mice with negative smears at 60 days are considered cured. The data from the in vivo testing verifies the antimalarial efficacy of febrifugine, halofuginone and the halofuginone derivatives in mice and provides new properties of halofuginone and halofuginone derivatives against malarial parasites in vivo.
The modified Thompson test was conducted in eleven groups of mice with eight mice per group. The tested mice were inoculated with P. Berghei on day zero and treated with febrifugines on days three with one oral or subcutaneous treatment per day for three days. […] The parasitemia of the infected mice was reduced to less than 3% with oral administration of 10 mg/kg febrifugines one/day for three days, while mice with the subcutaneous treatment had 30% of parasitemia at the same does as shown in FIGS. 3(a) through 3(d).
Eighty-eight ICR mice were inoculated with P. berghei, and separated into nine groups. Eight of the infected groups were treated with […] different doses of halofuginone twice a day for eight days. One group was treated with physiological saline as control. […] Two mice were cured at the doses of 0.25 and 0.5 mg/kg and survived 60 days after the treatment. […] The parasites were all cleared at the does of 1 mg/kg on day six.

The target in another series is T1, PfMRK (Plasmodium falciparum, UniProt P90584).
T1 sequence (P90584 1-324): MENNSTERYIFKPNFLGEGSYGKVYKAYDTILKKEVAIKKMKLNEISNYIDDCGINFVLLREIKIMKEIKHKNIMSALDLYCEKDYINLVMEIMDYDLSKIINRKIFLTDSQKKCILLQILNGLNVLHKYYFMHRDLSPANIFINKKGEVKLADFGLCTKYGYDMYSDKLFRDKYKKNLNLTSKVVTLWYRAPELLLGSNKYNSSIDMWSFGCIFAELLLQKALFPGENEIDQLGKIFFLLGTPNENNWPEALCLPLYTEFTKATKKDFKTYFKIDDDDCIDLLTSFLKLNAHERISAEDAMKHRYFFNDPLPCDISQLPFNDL
Kind of series: Kinase assay, recombinant plasmodial cyclin-dependent kinase. It is filed as biochemical. Particulars: recombinant kinase; dash = no inhibition; read-out: PFMRK (IC50:μM). From the text: Halofuginone is a known to be a specific collagen gene transcription inhibitor. However, inhibition to other target enzymes by febrifugine, halofuginone and halofuginone derivatives in malarial parasites remain unknown. Quinazoline analogues (the family to which these compounds belong) are known to target dihydrofolate reductase, mammalian EGFR kinase, the stress-activated protein kinase and cyclin dependent kinase. A series of enzymatic assays are used to detect whether the derivatives have inhibition against these enzymes. DHFR assay is conducted using a well-characterized spectrophotometric method. Kinase assays are conducted using radioisotope-labeling technique. The responses of the recombinant kinases to the derivatives are measured in a scintillation b-counter and illustrated using SDS-page gel and PhosphoImager. These tests provide information on the compounds' abilities to interfere with the functions of these enzymes and alter the parasite physiological pathways on a molecular basis.

The mark [3] stands for this setting: Table 4, W2, read-out: IC50 P. falciparum (W2).
Where [4] appears, read: Table 4, D6, read-out: IC50 P. falciparum (D6).
The mark [5] stands for this setting: Table 1, W2 strain, read-out: IC50 against P. falciparum W2 strain.
Where [6] appears, read: Table 1, D6 strain, read-out: IC50 against P. falciparum D6 strain.

≈ marks a conversion by molar mass, not a printed value. Where two headings read alike, the source gives them in different places.

As to `O=C(C[C@H]1NCCCC1O)Cn1cnc2ccccc2c1=O` (stereo partly drawn) [Febrifugine, (2′S,3′R)-3-[3-(3-hydroxy-2-piperidyl)acetonyl]-4(3H)quinazolinone], the IC50 in series [1] (W2, read-out: IC50 P. falciparum (W2)) came out at 0.00053 mg/L (≈ 0.00176 µM); in series [2] (D6, read-out: IC50 P. falciparum (D6)) it was 0.00034 mg/L (≈ 0.00113 µM); with Macrophage cells (J774) (Table 4, J774), 0.081 mg/L (≈ 0.269 µM); with Neuronal cells (NG108) (Table 4, NG108), 0.0635 mg/L (≈ 0.211 µM). Moreover, the “in vitro antimalarial activity relative to chloroquine and artemisinin” value with malarial parasites was “ten times stronger than chloroquine and artemisinin”. Besides, the “antimalarial activity relative to quinine” value in the series on Plasmodium lophurae is reported as 100 times as active as quinine.
Take `O=C(CC1NCCCC1O)Cn1cnc2cc(Br)c(Cl)cc2c1=O` (stereo not drawn) [Halofuginone]: the 50% inhibitory concentration (IC50) turned out to be 0.00015 mg/L (≈ 0.000362 µM) in series [1] (setting [3]); 0.00012 mg/L (≈ 0.000289 µM) in series [2] (setting [4]); 0.132 mg/L (≈ 0.319 µM) in the series with Macrophage cells (J774) (Table 4, J774); 0.177 mg/L (≈ 0.427 µM) in the series on Neuronal cells (NG108) (Table 4, NG108). The “lethal toxicity in infected mice” value with Plasmodium berghei (dose higher than 1 mg/kg twice a day) is recorded as “killed the tested mice before the parasites”. Further, the mouse survival time result in the series on Plasmodium berghei (doses of 0.125, 0.25 and 0.5 mg/kg twice a day for eight days, ICR mice) was “extended the mouse survival time”. In addition, the “parasitemia of the infected mice on day six” value in the series with Plasmodium berghei (doses of 0.25 and 0.5 mg/kg twice a day) is “below 0.5%”. The “mice cured (survived 60 days after the treatment)” value in the series on Plasmodium berghei (doses of 0.25 and 0.5 mg/kg twice a day for eight days) was “Two”. Also, in the series on malarial parasites, the “rank of in vitro potency against malarial parasites among febrifugine derivatives” value is “the most potent analog”.
Turning to `O=C(C[C@@H]1CCCCN1)Cn1cnc2ccccc2c1=O` [WR059421], the IC50 in series [1] (setting [5]) was determined as 0.026 mg/L (≈ 0.0912 µM); in series [1] (setting [3]) it was 0.0237 mg/L (≈ 0.083 µM); in series [2] (setting [6]), 0.0171 mg/L (≈ 0.06 µM); in series [2] (setting [4]), 0.0174 mg/L (≈ 0.0611 µM); in the series on Macrophage cells (J774) (Table 2, J774), 0.236 mg/L (≈ 0.827 µM); with Macrophage cells (J774) (Table 4, J774) it was 0.492 mg/L (≈ 1.72 µM). The IC50 in the series on Neuronal cells (NG108) (Table 2, NG108) was 5.38 mg/L (≈ 18.9 µM); in the series with Neuronal cells (NG108) (Table 4, NG108), 8.93 mg/L (≈ 31.3 µM); on PfMRK, around 27 µM.
Consider `O=C(C[C@H]1CCCCN1C(=O)c1ccccc1)Cn1cnc2ccccc2c1=O` [WR059424], for which the IC50 in series [1] (setting [3]) amounted to 0.284 mg/L (≈ 0.728 µM); in series [2] (setting [4]) it was 0.291 mg/L (≈ 0.748 µM); in the series with Macrophage cells (J774) (Table 4, J774), 3.01 mg/L (≈ 7.73 µM); in the series with Neuronal cells (NG108) (Table 4, NG108) it was 36.8 mg/L (≈ 94.5 µM).
In the case of `C=CCOC(=O)N1CCCC(OCC)[C@H]1CC(=O)Cn1cnc2ccccc2c1=O` (stereo partly drawn) [WR088442], the IC50 in series [1] (setting [5]) stood at 0.288 mg/L (≈ 0.696 µM); in series [1] (setting [3]), 0.245 mg/L (≈ 0.593 µM); in series [2] (setting [6]), 0.203 mg/L (≈ 0.491 µM); in series [2] (setting [4]) it was 0.193 mg/L (≈ 0.466 µM); with Macrophage cells (J774) (Table 2, J774) it was 9.1 mg/L (≈ 22 µM); in the series on Macrophage cells (J774) (Table 4, J774), 7.09 mg/L (≈ 17.1 µM). Further, the IC50 in the series with Neuronal cells (NG108) (Table 2, NG108) was 21.5 mg/L (≈ 52 µM); in the series with Neuronal cells (NG108) (Table 4, NG108), 35.1 mg/L (≈ 84.8 µM); at PfMRK, around 25 µM.
As for `C=CCOC(=O)N1CCCC(OC)[C@H]1CC(=O)Cn1cnc2cc3c(cc2c1=O)OCO3` (stereo partly drawn) [WR089904], the IC50 in series [1] (setting [5]) stood at 0.129 mg/L (≈ 0.292 µM); in series [1] (setting [3]), 0.129 mg/L (≈ 0.292 µM); in series [2] (setting [6]), 0.0897 mg/L (≈ 0.202 µM); in series [2] (setting [4]) it was 0.0897 mg/L (≈ 0.202 µM); in the series with Macrophage cells (J774) (Table 2, J774) it was 29.2 mg/L (≈ 65.7 µM); in the series on Macrophage cells (J774) (Table 4, J774), 1.08 mg/L (≈ 2.43 µM). Besides, the IC50 turned out to be 63 mg/L (≈ 142 µM) in the series on Neuronal cells (NG108) (Table 2, NG108) and 53.3 mg/L (≈ 120 µM) in the series with Neuronal cells (NG108) (Table 4, NG108).
